The values that follow come from patent US20130195798A1, “COMBINATION THERAPY FOR TREATMENT OF VIRAL INFECTIONS” (The Chancellors, Masters and Scholars of the University of …, priority 2006, published 2013).

The structures appear in SMILES notation.

The test system of assay [1] is ncp BVDV strain Pe515. The assay can be described thus: Real time RT-PCR of secreted viral RNA in supernatants of persistently infected MDBK cells (Example 3). In kind it is cell-based, bovine viral diarrhea virus. The settings on record: iminosugar added to IFN/RBV from the beginning of treatment. The procedure: Madin-Darby bovine kidney cells (MDBK) MDBK cells were seeded at 1×10^6 cells/35 mm dish, infected with non-cytopathic (ncp) BVDV strain Pe515 (National Animal Disease Laboratory) at a MOI of 0.1, and passaged into fresh RPMI 1640 medium containing 10% (v/v) Foetal calf serum using a 1:8 dilution every three days. After achieving a stable infection IFN (1000 IU) and RBV (1 μM) (Sigma-Aldrich) were added to the cells; this passage was denoted passage 0 (P0). Simultaneously, a non-drug treated positive control sample and mock-infected (M.I.) negative controls cultured in the presence and absence of IFN and RBV (1000 IU and 1 μM, respectively) were prepared. Cells continued to be passaged every 3 days into fresh medium containing IFN and RBV. […] At each passage the combined supernatants of cultured cells from duplicate wells were harvested (to account for biological variation), levels of secreted viral RNA measured (by real time RT-PCR using technical duplicates) and the infectivity of the supernatant determined using an immunofluorescence (IF) based infectivity assay.
At each passage, a 500 μl aliquot of each supernatant harvested from the cultured cells was concentrated by ultrafiltration (10 kDa molecular weight cut off Centricon filter; Millipore, Mass., USA) to 140 μl. […] Real time RT-PCR was carried out using the Qiagen Quantitect RT-PCR kit. […]
In general terms: Quantitative PCR measures a nucleic acid by following its amplification.

The subject of assay [2] is cytopathic BVDV. The settings on record: higher NB-DNJ concentrations in combination with IFN; cited from earlier work.

Regarding `CCCCN1C[C@H](O)[C@@H](O)[C@H](O)[C@H]1CO` [NB-DNJ, N-butyl deoxynojirimycin], the “additional effect on decrease of viral RNA levels (synergy)” value in assay [1] is “no synergy was observed”. In addition, the “antiviral effect of the combination” value in assay [2] is “greater than additive antiviral effect”.
